Measurements taken from the kinase profiling compilation of Christmann-Franck et al. (2016).

Key:
Test in all cases: radiometric filter-binding kinase assay, Kinase HotSpot
Settings in all cases: compound 0.5 µM; ATP 10 µM
MAPK11 (human) = MAPK11 (human) (UniProt Q15759)
STK38 (human) = STK38 (human) (UniProt Q15208)
PRKACG (human) = PRKACG (human) (UniProt P22612)
STK33 (human) = STK33 (human) (UniProt Q9BYT3)
BTK (human) = BTK (human) (UniProt Q06187)
PBK (human) = PBK (human) (UniProt Q96KB5)
Sequence of PBK (human) (Q96KB5 whole entry, looked up): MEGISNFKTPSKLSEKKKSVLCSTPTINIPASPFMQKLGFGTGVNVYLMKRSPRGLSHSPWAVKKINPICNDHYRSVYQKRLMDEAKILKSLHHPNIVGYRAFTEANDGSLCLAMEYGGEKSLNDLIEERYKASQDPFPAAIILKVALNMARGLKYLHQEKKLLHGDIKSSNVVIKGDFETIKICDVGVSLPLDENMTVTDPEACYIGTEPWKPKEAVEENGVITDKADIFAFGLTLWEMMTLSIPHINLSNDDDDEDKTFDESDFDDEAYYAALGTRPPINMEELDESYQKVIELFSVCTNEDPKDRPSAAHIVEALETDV

ROCK1 (human) = ROCK1 (human) (UniProt Q13464)
PRKD1 (human) = PRKD1 (human) (UniProt Q15139)
MAP3K3 (human) = MAP3K3 (human) (UniProt Q99759)
CSK (human) = CSK (human) (UniProt P41240)
ACVR1B (human) = ACVR1B (human) (UniProt P36896)
[1] = molecular target: TYK2 JH1 catalytic (human) (UniProt P29597)
AXL (human) = AXL (human) (UniProt P30530)
AKT3 (human) = AKT3 (human) (UniProt Q9Y243)
DYRK3 (human) = DYRK3 (human) (UniProt O43781)
PTK2B (human) = PTK2B (human) (UniProt Q14289)
Sequence of PTK2B (human) (Q14289 whole entry, looked up): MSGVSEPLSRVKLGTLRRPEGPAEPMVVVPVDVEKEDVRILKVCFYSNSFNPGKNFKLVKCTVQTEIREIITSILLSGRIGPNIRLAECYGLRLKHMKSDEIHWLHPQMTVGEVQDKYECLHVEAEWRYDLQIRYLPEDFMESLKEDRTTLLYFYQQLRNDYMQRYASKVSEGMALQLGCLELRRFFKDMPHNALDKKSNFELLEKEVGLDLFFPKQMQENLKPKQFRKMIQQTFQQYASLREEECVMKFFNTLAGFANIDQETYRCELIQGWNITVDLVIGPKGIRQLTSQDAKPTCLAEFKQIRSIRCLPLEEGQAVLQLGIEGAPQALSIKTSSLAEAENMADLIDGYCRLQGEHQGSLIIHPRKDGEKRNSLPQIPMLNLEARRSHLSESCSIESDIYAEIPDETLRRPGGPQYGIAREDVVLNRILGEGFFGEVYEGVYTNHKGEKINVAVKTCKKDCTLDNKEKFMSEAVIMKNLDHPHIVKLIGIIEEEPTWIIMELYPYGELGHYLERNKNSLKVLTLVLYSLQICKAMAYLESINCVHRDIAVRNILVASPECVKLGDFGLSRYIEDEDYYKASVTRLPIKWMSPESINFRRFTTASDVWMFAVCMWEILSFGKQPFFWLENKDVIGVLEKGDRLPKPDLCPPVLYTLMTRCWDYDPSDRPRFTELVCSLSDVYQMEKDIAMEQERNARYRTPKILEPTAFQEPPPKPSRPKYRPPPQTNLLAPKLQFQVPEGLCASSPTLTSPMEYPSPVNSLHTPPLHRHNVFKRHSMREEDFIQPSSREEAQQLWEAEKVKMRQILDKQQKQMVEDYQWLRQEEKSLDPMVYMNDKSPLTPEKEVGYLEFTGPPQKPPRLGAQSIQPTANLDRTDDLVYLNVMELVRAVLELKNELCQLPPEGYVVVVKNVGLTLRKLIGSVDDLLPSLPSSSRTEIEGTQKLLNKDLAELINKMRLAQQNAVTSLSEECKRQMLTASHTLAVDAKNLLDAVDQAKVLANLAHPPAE

CSNK2A1 (human) = CSNK2A1 (human) (UniProt P68400)
PRKD3 (human) = PRKD3 (human) (UniProt O94806)
CAMK2A (human) = CAMK2A (human) (UniProt Q9UQM7)
STK10 (human) = STK10 (human) (UniProt O94804)
SLK (human) = SLK (human) (UniProt Q9H2G2)
CDK6 CCND1 (human) = CDK6 CCND1 (human) (UniProt Q00534+P24385)
PDGFRB (human) = PDGFRB (human) (UniProt P09619)
Sequence of PDGFRB (human) (P09619 whole entry, looked up): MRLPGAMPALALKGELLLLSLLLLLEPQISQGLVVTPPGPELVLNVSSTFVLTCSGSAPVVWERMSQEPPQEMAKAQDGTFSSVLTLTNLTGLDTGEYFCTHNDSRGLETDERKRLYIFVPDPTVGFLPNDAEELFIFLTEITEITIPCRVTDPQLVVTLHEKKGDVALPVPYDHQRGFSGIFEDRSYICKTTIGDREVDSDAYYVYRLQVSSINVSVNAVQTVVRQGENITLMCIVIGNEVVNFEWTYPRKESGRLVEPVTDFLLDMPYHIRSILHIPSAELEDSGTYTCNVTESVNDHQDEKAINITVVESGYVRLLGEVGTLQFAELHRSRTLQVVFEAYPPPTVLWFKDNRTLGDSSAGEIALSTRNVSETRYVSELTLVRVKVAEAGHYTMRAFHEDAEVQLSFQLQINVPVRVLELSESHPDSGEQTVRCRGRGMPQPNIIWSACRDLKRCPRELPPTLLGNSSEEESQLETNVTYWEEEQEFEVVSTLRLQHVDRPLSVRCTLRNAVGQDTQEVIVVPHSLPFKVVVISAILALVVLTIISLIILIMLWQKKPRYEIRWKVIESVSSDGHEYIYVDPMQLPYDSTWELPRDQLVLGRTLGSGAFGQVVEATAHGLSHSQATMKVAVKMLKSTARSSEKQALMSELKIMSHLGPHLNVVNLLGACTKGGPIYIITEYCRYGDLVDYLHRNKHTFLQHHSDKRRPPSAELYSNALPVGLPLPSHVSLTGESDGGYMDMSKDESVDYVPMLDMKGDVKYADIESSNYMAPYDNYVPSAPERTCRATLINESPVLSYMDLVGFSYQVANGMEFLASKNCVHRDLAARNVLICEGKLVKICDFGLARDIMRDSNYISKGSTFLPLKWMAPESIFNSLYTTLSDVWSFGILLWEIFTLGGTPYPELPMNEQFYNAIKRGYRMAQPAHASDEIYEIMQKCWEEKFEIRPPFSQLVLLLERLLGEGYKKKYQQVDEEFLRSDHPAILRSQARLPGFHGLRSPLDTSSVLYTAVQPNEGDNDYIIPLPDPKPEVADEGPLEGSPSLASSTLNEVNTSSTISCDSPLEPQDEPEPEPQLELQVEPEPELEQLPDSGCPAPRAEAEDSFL

TAOK3 (human) = TAOK3 (human) (UniProt Q9H2K8)
SRPK2 (human) = SRPK2 (human) (UniProt P78362)
MAP3K14 (human) = MAP3K14 (human) (UniProt Q99558)
MAP3K8 (human) = MAP3K8 (human) (UniProt P41279)
DAPK1 (human) = DAPK1 (human) (UniProt P53355)
MAP3K5 (human) = MAP3K5 (human) (UniProt Q99683)
PAK6 (human) = PAK6 (human) (UniProt Q9NQU5)
MAPK8 (human) = MAPK8 (human) (UniProt P45983)
Sequence of MAPK8 (human) (P45983 whole entry, looked up): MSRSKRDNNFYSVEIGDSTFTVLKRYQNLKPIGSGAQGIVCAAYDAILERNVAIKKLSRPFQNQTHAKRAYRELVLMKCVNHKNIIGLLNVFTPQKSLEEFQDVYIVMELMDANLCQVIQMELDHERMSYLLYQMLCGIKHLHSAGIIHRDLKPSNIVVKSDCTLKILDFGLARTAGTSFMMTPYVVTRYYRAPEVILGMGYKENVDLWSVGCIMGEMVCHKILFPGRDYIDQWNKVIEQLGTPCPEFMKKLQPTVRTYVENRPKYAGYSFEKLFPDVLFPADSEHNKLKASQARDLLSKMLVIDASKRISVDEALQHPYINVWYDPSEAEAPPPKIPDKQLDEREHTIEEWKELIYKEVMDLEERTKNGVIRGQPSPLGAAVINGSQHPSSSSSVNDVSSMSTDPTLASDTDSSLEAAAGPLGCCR

RPS6KA3 KD1 KD2 (human) = RPS6KA3 KD1 KD2 (human) (UniProt P51812)
MAP4K2 (human) = MAP4K2 (human) (UniProt Q12851)
Sequence of MAP4K2 (human) (Q12851 whole entry, looked up): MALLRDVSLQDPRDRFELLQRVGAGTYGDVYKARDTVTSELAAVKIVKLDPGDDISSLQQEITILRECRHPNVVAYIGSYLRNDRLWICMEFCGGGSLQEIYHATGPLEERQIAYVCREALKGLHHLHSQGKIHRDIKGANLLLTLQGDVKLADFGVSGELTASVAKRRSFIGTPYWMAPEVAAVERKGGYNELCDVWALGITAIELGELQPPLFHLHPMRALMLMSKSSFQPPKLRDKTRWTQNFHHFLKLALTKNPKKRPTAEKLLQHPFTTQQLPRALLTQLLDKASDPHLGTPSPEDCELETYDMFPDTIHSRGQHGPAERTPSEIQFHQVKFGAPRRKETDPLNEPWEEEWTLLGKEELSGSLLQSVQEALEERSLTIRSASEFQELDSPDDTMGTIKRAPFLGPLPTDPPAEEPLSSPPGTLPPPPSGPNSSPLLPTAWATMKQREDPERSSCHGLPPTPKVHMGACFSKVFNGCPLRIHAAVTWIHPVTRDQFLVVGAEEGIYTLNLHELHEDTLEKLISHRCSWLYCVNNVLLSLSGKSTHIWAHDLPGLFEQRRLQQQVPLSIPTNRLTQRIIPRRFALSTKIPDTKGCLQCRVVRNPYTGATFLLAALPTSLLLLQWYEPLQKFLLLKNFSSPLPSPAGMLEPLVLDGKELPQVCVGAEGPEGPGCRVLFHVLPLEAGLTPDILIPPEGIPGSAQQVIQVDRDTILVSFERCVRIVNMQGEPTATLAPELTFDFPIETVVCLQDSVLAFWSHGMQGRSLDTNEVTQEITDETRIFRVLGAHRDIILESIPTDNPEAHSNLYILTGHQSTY

FER (human) = FER (human) (UniProt P16591)
EPHA4 (human) = EPHA4 (human) (UniProt P54764)
Sequence of EPHA4 (human) (P54764 whole entry, looked up): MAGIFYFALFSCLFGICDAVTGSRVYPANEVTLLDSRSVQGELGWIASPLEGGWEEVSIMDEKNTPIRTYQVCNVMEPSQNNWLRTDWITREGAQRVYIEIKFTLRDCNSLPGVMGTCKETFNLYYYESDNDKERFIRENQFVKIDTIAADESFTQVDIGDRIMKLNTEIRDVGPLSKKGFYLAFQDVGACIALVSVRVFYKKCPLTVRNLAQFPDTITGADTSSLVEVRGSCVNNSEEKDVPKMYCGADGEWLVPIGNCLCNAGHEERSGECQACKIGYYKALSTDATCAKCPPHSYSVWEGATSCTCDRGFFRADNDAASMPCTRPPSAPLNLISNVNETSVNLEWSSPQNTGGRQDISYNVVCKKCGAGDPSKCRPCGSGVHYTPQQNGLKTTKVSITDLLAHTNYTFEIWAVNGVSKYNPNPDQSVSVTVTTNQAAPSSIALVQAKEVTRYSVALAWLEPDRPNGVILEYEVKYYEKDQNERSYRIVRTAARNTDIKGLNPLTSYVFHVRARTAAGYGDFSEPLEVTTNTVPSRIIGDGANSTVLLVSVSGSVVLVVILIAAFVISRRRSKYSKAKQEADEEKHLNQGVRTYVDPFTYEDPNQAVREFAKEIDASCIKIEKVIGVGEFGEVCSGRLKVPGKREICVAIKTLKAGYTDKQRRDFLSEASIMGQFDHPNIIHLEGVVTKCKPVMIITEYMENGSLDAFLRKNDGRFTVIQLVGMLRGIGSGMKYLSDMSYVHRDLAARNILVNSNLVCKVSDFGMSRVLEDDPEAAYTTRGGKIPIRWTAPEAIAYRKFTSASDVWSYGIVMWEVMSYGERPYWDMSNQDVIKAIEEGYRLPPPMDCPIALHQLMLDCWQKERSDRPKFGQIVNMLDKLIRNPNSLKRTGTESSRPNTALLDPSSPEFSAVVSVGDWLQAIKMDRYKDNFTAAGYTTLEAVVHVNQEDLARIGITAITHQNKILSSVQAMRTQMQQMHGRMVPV

NEK11 (human) = NEK11 (human) (UniProt Q8NG66)
AURKC (human) = AURKC (human) (UniProt Q9UQB9)
CAMK2D (human) = CAMK2D (human) (UniProt Q13557)
CAMK1D (human) = CAMK1D (human) (UniProt Q8IU85)
INSR (human) = INSR (human) (UniProt P06213)
CDK2 CCNA2 (human) = CDK2 CCNA2 (human) (UniProt P24941+P20248)

Sequence of MAPK11 (human) (Q15759 whole entry, looked up): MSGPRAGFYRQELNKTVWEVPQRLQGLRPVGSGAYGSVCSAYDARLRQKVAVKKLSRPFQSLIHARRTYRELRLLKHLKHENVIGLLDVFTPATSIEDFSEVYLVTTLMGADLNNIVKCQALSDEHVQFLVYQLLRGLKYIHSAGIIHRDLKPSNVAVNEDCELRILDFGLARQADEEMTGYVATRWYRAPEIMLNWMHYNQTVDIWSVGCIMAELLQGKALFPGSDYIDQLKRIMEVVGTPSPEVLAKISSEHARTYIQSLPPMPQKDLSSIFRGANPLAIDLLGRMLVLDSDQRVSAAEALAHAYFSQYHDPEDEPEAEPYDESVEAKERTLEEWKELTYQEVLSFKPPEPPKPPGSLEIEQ

Structure (SMILES): CCN(CC)CCNC(=O)c1c(C)[nH]c(/C=C2\C(=O)Nc3ccc(F)cc32)c1C
- residual activity (MAPK11 (human)): 99.9%
- residual activity (STK38 (human)): 93.8%
- residual activity (PRKACG (human)): 109%
- residual activity (STK33 (human)): 31.8%
- residual activity (BTK (human)): 50.2%
- residual activity (PBK (human)): 106%
- residual activity (ROCK1 (human)): 99.7%
- residual activity (PRKD1 (human)): 20%
- residual activity (MAP3K3 (human)): 42%
- residual activity (CSK (human)): 90.2%
- residual activity (ACVR1B (human)): 101%
- residual activity [1]: 52.6%
- residual activity (AXL (human)): 27.4%
- residual activity (AKT3 (human)): 71.7%
- residual activity (DYRK3 (human)): 58.2%
- residual activity (PTK2B (human)): 38.3%
- residual activity (CSNK2A1 (human)): 121%
- residual activity (PRKD3 (human)): 16.6%
- residual activity (CAMK2A (human)): 14.5%
- residual activity (STK10 (human)): 31.2%
- residual activity (SLK (human)): 63.8%
- residual activity (CDK6 CCND1 (human)): 50.5%
- residual activity (PDGFRB (human)): 17.6%
- residual activity (TAOK3 (human)): 82.9%
- residual activity (SRPK2 (human)): 95%
- residual activity (MAP3K14 (human)): 127%
- residual activity (MAP3K8 (human)): 117%
- residual activity (DAPK1 (human)): 66.9%
- residual activity (MAP3K5 (human)): 100%
- residual activity (PAK6 (human)): 107%
- residual activity (MAPK8 (human)): 91.8%
- residual activity (RPS6KA3 KD1 KD2 (human)): 35.5%
- residual activity (MAP4K2 (human)): 34.4%
- residual activity (FER (human)): 31.6%
- residual activity (EPHA4 (human)): 84.5%
- residual activity (NEK11 (human)): 106%
- residual activity (AURKC (human)): 72.8%
- residual activity (CAMK2D (human)): 11.6%

Structure (SMILES): CNC(=O)c1cc(Oc2ccc(NC(=O)Nc3ccc(Cl)c(C(F)(F)F)c3)cc2)ccn1
- residual activity (CAMK1D (human)): 103%
- residual activity (MAPK11 (human)): 46.9%
- residual activity (STK38 (human)): 99.8%
- residual activity (PRKACG (human)): 100%
- residual activity (STK33 (human)): 83.9%
- residual activity (BTK (human)): 102%
- residual activity (PBK (human)): 97.5%
- residual activity (ROCK1 (human)): 102%
- residual activity (PRKD1 (human)): 99.7%
- residual activity (MAP3K3 (human)): 107%
- residual activity (CSK (human)): 90.3%
- residual activity (ACVR1B (human)): 102%
- residual activity [1]: 98.9%
- residual activity (AXL (human)): 105%
- residual activity (AKT3 (human)): 94.2%
- residual activity (DYRK3 (human)): 92.7%
- residual activity (PTK2B (human)): 101%
- residual activity (CSNK2A1 (human)): 108%
- residual activity (PRKD3 (human)): 94%
- residual activity (CAMK2A (human)): 95.3%
- residual activity (STK10 (human)): 72.4%
- residual activity (SLK (human)): 96.8%
- residual activity (INSR (human)): 106%
- residual activity (CDK6 CCND1 (human)): 91.8%
- residual activity (PDGFRB (human)): 12%
- residual activity (TAOK3 (human)): 63.5%
- residual activity (SRPK2 (human)): 102%
- residual activity (MAP3K14 (human)): 96.4%
- residual activity (MAP3K8 (human)): 93.6%
- residual activity (CDK2 CCNA2 (human)): 99.7%
- residual activity (DAPK1 (human)): 101%
- residual activity (MAP3K5 (human)): 103%
- residual activity (PAK6 (human)): 104%
- residual activity (MAPK8 (human)): 92.8%
- residual activity (RPS6KA3 KD1 KD2 (human)): 100%
- residual activity (MAP4K2 (human)): 108%
- residual activity (FER (human)): 101%
- residual activity (EPHA4 (human)): 92.5%
- residual activity (NEK11 (human)): 105%
- residual activity (AURKC (human)): 106%
- residual activity (CAMK2D (human)): 102%
